In PMC11010885, “Functional Analysis and Tissue-Specific Expression of Calcitonin and CGRP with RAMP-Modulated Receptors CTR and CLR in Chickens” (Animals : an Open Access Journal from MDPI, 2024):

Columns and labels:
Assay type in all cases: cell-based
[1] = tested on: chicken CTR; assay: cAMP/PKA pGL3-CRE-luciferase reporter assay, CTR + pcDNA in CHO cells
Experimental: (§1) Chinese hamster ovary (CHO) cells were cultured in Dulbecco’s modified Eagle’s medium (DMEM) supplemented with 10% (vol/vol) fetal bovine serum (HyClone, Logan, UT, USA), 100 U/mL penicillin G and 100 μg/mL streptomycin. The cells were maintained in a 90 mm culture dish (Nunc, Rochester, NY, USA) and incubated at 37 °C with 5% CO2. To investigate the signaling pathways associated with each receptor in CHO cells, three different reporter systems (pGL3-CRE-luciferase, pGL4-SRE-luciferase, and pGL3-NFAT-RE-luciferase) were utilized to monitor intracellular cAMP/PKA and MAPK/ERK signaling pathways and calcium mobilization of the activated receptors, respectively.
(§2) Prior to the transfection procedure, the cells were initially cultured in 6-well plates (Nunc, Rochester, NY, USA), maintaining a seeding density of approximately 300,000 cells per well. Upon achieving approximately 70% confluence, the cells underwent a co-transfection process. This procedure entailed the introduction of 700 ng of various luciferase reporter constructs (namely, pGL3-CRE-luciferase, pGL4-SRE-luciferase, or pGL3-NFAT-RE-luciferase) combined with 200 ng of a specific receptor plasmid (CTR or CLR) and 1000 ng of either RAMP1, RAMP2, RAMP3 expression plasmids, or alternatively, the empty pcDNA3.1 (+) vector. A volume of 5.7 μL of PEI MAX was used in 200 μL of buffer following the manufacturer’s protocol. After 24 h of incubation, the transfected CHO cells were subcultured in 96-well plates and passaged for an additional 24 h before peptide treatment. Then, the medium from the 96-well plates was removed, and the cells were treated with chicken CT/CGRP-containing medium (or untreated medium as a control) at concentrations ranging from 10^−12 M to 10^−6 M for 6 h. Subsequently, the cells were harvested for luciferase assays by lysing them in 1 × passive lysis buffer. To measure the luciferase activity of the cell lysate, 40 μL of luciferase assay reagent (Promega, Madison, WI, USA) was mixed with the cell lysate following the manufacturer’s instructions. The fluorescence activity of the luciferase in each treatment group was measured using a multimode microplate reader (TriStar LB941, Berthold Technologies, Bad Wildbad, Germany). Finally, the fluorescence activity of each treatment group was expressed as a relative increase ratio compared to the control group.

[2] = tested on: chicken CTR + RAMP1; assay: cAMP/PKA pGL3-CRE-luciferase reporter assay, CTR + RAMP1 in CHO cells; conditions: 10^−12 M to 10^−6 M, 6 h, mean ± SEM, n = 3, read-out: EC50, cAMP/PKA signaling pathway
Experimental: as §1
(§3) Prior to the transfection procedure, the cells were initially cultured in 6-well plates (Nunc, Rochester, NY, USA), maintaining a seeding density of approximately 300,000 cells per well. Upon achieving approximately 70% confluence, the cells underwent a co-transfection process. […] The fluorescence activity of the luciferase in each treatment group was measured using a multimode microplate reader (TriStar LB941, Berthold Technologies, Bad Wildbad, Germany). Finally, the fluorescence activity of each treatment group was expressed as a relative increase ratio compared to the control group.

[3] = tested on: chicken CTR + RAMP2; assay: cAMP/PKA pGL3-CRE-luciferase reporter assay, CTR + RAMP2 in CHO cells; conditions: 10^−12 M to 10^−6 M, 6 h, mean ± SEM, n = 3, read-out: EC50, cAMP/PKA signaling pathway
Experimental: as §1, §3

[4] = tested on: chicken CTR + RAMP3; assay: cAMP/PKA pGL3-CRE-luciferase reporter assay, CTR + RAMP3 in CHO cells; conditions: 10^−12 M to 10^−6 M, 6 h, mean ± SEM, n = 3, read-out: EC50, cAMP/PKA signaling pathway
Experimental: as §1, §3

[5] = tested on: chicken CLR; assay: cAMP/PKA pGL3-CRE-luciferase reporter assay, CLR + pcDNA in CHO cells
Experimental: as §1, §2

[6] = tested on: chicken CLR + RAMP1; assay: cAMP/PKA pGL3-CRE-luciferase reporter assay, CLR + RAMP1 in CHO cells; conditions: CLR + RAMP1, CHO cells, pGL3-CRE-luciferase, 10^−12 M to 10^−6 M, 6 h; mean ± SEM, n = 3; read-out: EC50, cAMP/PKA signaling pathway
Experimental: as §1
as §2, with “Subsequently, the cells were harvested for luciferase assays by lysing them in 1 × passive lysis buffer. To measure the luciferase activity of the cell lysate, 40 μL of luciferase assay reagent (Promega, Madison, WI, USA) was mixed with the cell lysate following the manufacturer’s instructions.” left out

[7] = tested on: chicken CLR + RAMP2; assay: cAMP/PKA pGL3-CRE-luciferase reporter assay, CLR + RAMP2 in CHO cells; conditions: 10^−12 M to 10^−6 M, 6 h, mean ± SEM, n = 3, read-out: EC50, cAMP/PKA signaling pathway
Experimental: as §1, §3

[8] = tested on: chicken CLR + RAMP3; assay: cAMP/PKA pGL3-CRE-luciferase reporter assay, CLR + RAMP3 in CHO cells; conditions: 10^−12 M to 10^−6 M, 6 h, mean ± SEM, n = 3, read-out: EC50, cAMP/PKA signaling pathway
Experimental: as §1, §3

[9] = tested on: chicken CTR; assay: MAPK/ERK pGL4-SRE-luciferase reporter assay, CTR + pcDNA in CHO cells; conditions: 10^−12 M to 10^−6 M, 6 h, mean ± SEM, n = 3, read-out: EC50, MAPK/ERK signaling pathway
Experimental: as §1, §3

[10] = tested on: chicken CTR + RAMP1; assay: MAPK/ERK pGL4-SRE-luciferase reporter assay, CTR + RAMP1 in CHO cells; conditions: 10^−12 M to 10^−6 M, 6 h, mean ± SEM, n = 3, read-out: EC50, MAPK/ERK signaling pathway
Experimental: as §1, §3

[11] = tested on: chicken CTR + RAMP2; assay: MAPK/ERK pGL4-SRE-luciferase reporter assay, CTR + RAMP2 in CHO cells; conditions: 10^−12 M to 10^−6 M, 6 h, mean ± SEM, n = 3, read-out: EC50, MAPK/ERK signaling pathway
Experimental: as §1, §3

[12] = tested on: chicken CTR + RAMP3; assay: MAPK/ERK pGL4-SRE-luciferase reporter assay, CTR + RAMP3 in CHO cells; conditions: 10^−12 M to 10^−6 M, 6 h, mean ± SEM, n = 3, read-out: EC50, MAPK/ERK signaling pathway
Experimental: as §1, §3

[13] = tested on: chicken CLR; assay: MAPK/ERK pGL4-SRE-luciferase reporter assay, CLR + pcDNA in CHO cells; conditions: 10^−12 M to 10^−6 M, 6 h, mean ± SEM, n = 3, read-out: EC50, MAPK/ERK signaling pathway
Experimental: as §1, §3

[14] = tested on: chicken CLR + RAMP1; assay: MAPK/ERK pGL4-SRE-luciferase reporter assay, CLR + RAMP1 in CHO cells; conditions: 10^−12 M to 10^−6 M, 6 h, mean ± SEM, n = 3, read-out: EC50, MAPK/ERK signaling pathway
Experimental: as §1, §3

[15] = tested on: chicken CLR + RAMP2; assay: MAPK/ERK pGL4-SRE-luciferase reporter assay, CLR + RAMP2 in CHO cells; conditions: 10^−12 M to 10^−6 M, 6 h, mean ± SEM, n = 3, read-out: EC50, MAPK/ERK signaling pathway
Experimental: as §1, §3

calcitonin [CT] was tested, and the EC50 ([1]; CTR + pcDNA, CHO cells, pGL3-CRE-luciferase, 10^−12 M to 10^−6 M, 6 h, mean ± SEM, n = 3, read-out: EC50, cAMP/PKA signaling pathway) was 150 ± 40 pM, the “activation (cAMP production), in words” value ([1]; independent CTR) was “strongly activates” and the EC50 [2] was 770 ± 70 pM. For the same substance, the EC50 [3] was 670 ± 100 pM, the EC50 [4] was 440 ± 100 pM and the EC50 ([5]; CLR + pcDNA, CHO cells, pGL3-CRE-luciferase, 10^−12 M to 10^−6 M, 6 h, mean ± SEM, n = 3, read-out: EC50, cAMP/PKA signaling pathway) was 750 ± 210 pM. The “activation (cAMP production), in words” value ([5]; independent CLR) was “strongly activates”, the EC50 [6] was 3300 ± 960 pM and the EC50 [7] was 930 ± 150 pM. The EC50 [8] was 1270 ± 830 pM, the EC50 [9] was 150 ± 50 pM and the EC50 [10] was 1380 ± 240 pM. The EC50 [11] was 2090 ± 420 pM, the EC50 [12] was 380 ± 130 pM and the EC50 [13] was 300 ± 120 pM. It also gave an EC50 [14] of 890 ± 200 pM and an EC50 [15] of 380 ± 90 pM.
